These results are taken from a melting point compilation (Tetko et al.; mined from patent text by program, amines drawn as free bases though some values may be those of a salt).

As for `O=C(Nc1ccc(S(=O)(=O)N2CCC(CNC[C@H](O)COc3ccc(O)cc3)CC2)cc1)Nc1ccccn1`, the melting point (commonly the temperature of the solid-liquid transition) was 189 °C. `O=C(Nc1ccc(Cl)cc1)c1ccccc1F` returned a melting point of 94.5 to 96.2 °C. For `Cc1c(F)cc(C(C)(C)C)c(O)c1-c1nc2ccc(S(=O)(=O)C(F)(F)F)cc2c(=O)[nH]1` the value was 257 to 258 °C. For `Cc1cc(Br)cc(C(=O)Nc2ccc(F)cn2)n1` the value was 160 °C; for `CCN(CC1CCCC1)c1nc2ccccc2cc1CN(Cc1cc(C(F)(F)F)cc(C(F)(F)F)c1)C(N)=S`, 98 °C; for `CCN(CC)CCNC(=O)c1cc(Cl)c(N)cc1OCC(=O)Cc1ccccc1`, 138 to 139 °C. In turn, `COC(=O)c1ccc(CSc2nc3ccccc3[nH]2)cc1` gave a melting point of 229 to 231 °C.

The compound `COc1cccc(OC)c1-c1ccccc1P(C1CCCCC1)C1CCCCC1` displayed a melting point of 163 to 165 °C.

The compound `O=C(NCC1(O)CCCCCC1)c1cc(-c2ccccc2C(=O)O)ccc1Cl` returned a melting point of 113 to 116 °C.

Compound `CN1CC(c2cc(CCc3ccc(F)cc3)ccn2)=C(O)C1=O` came in with a melting point of 167 to 168 °C. Turning to `COC(=O)CC(=O)C1CCC2C3CCC4CC(O)CCC4(C)C3C(=O)CC12C` (stereo not drawn), the melting point is 150 to 152 °C. Compound `Cc1nc(N)c2nc(CONC(C)C)n(CCCCNC(=O)C(C)C)c2c1C` came in with a melting point of 156 to 157 °C.

Regarding `COC=C(C(=O)OC)c1ccccc1CSc1ccccc1`, the melting point came to 71 °C. Take `Cc1ccc(C2=C(c3ccc(S(N)(=O)=O)cc3)CCC2)cn1`: the melting point was 108 to 110 °C.

Compound `COc1cccc(C(=O)OC(=C2C(=O)N(C(N)=O)c3cc(Cl)c(F)cc32)c2cccs2)c1` gave a melting point of 196 to 220 °C. The compound `O=C(Nc1cccc(F)c1)Nc1cnnc(Cl)c1` displayed a melting point of 293 to 296 °C. For `CC1(C)C2CC3CCC(=O)OC3C1C2` (stereo not drawn) the value was 57 to 60 °C; for `CCOC(=O)/C=C(C)/C=C/C=C(\C)C1=Cc2cc(Cl)cc(C)c2OC1`, 107 °C; for `CC(C)CN1C(=O)[C@@H](CC(=O)O)O[C@H](c2ccccc2OC(C)C)c2cc(Cl)ccc21` (relative stereo), 146 to 149 °C. In the case of `Cc1nc(C(F)(F)F)ccc1C(=O)C1=C(S(=O)(=O)c2ccccc2)CCCC1=O`, the melting point was in the range of 165 to 167 °C.

For the compound `O=C1c2ccccc2S(=O)(=O)N1c1c(F)c(F)nc(F)c1F`, the melting point was in the range of 164 to 165 °C. For `COC(=O)c1ccc(Cn2nc(OC)c3ccc(N)cc32)c(OC)c1`, the melting point is 188 to 193 °C. In turn, `CCS(=O)(=O)c1ccc(F)c([N+](=O)[O-])c1` returned a melting point of 128 to 131 °C. For the compound `Nc1c(Cl)cc(Cl)c(CCC(=O)O)c1Cl`, the melting point was found to be 145 °C. The compound `Cc1cc2cc(C(=O)OCc3ccccc3)n(CC(=O)OC(C)(C)C)c2cc1C` gave a melting point of 133 to 134 °C. The compound `Cn1c(=O)nc(N)c2ccccc21` returned a melting point of 252 to 262 °C. `Cc1c(C)c2c(c(C)c1OC(=O)CCC(=O)O)CCC(C)(COc1ccc(CC3SC(=O)NC3=O)cc1)O2` (stereo not drawn) yielded a melting point of 197 to 202 °C. Consider `Cc1c(NC(=O)c2ccc(OC[C@@H]3CCCO3)cc2)ccc2cc(CNCC(C)(C)C)[nH]c12`, for which the melting point amounted to 168 °C.

As to `NC(=O)NCCC(F)=C(F)F`, the melting point fell in the range of 86 to 88 °C. In turn, `CCCCCCN1CCN(Cc2ccc(NC(N)=S)cc2)C(=O)C1=O` gave a melting point of 197 to 198 °C. On to `CNc1ccc(N)cc1[N+](=O)[O-]`, for which the melting point is 115 to 116 °C. `CCNC(=O)c1nc(Cl)c(Cl)[nH]1` had a melting point of 146 °C. Take `CS(=O)(=O)NC(=O)COc1ccc(CCCS(=O)(=O)c2ccc(Cl)cc2)cc1NC(=O)c1cccc(OCc2nc3ccccc3s2)c1`: the melting point is 153 °C. As for `Clc1cccc(Nc2ncnc3[nH]c(-c4ccccc4)cc23)c1`, the melting point is 285 to 286 °C. The result for `CCCC(=O)Nc1n[nH]c2c([N+](=O)[O-])c(Br)c([N+](=O)[O-])cc12` reads 260 °C. The compound `C=C(c1ccc(OC)cc1)c1ccc(N2CCCC2)cc1` displayed a melting point of 159 to 162 °C. The compound `COc1cc(OC)c(-c2cc3ccccc3n2C)cc1C=CC(=O)c1ccc(S(=O)(=O)NO)cc1` had a melting point of more than 260 °C. In turn, `CC(C)c1ccc2c(c1)c(Sc1ccccc1C(C)C)c(CC(C)(C)C(=O)O)n2Cc1ccc(Cl)cc1` registered a melting point of 142 to 143 °C. `CC(CCCCCOCCc1ccccc1)NCC(O)c1ccc(O)c2[nH]c(=O)ccc12` (stereo not drawn): the melting point lay in the range of 134 to 138 °C. For `C[C@@H](Oc1cccc(F)c1N)[C@H](NC(=O)OC(C)(C)C)C(=O)O` the value was 158 to 160 °C; for `COc1ccc(C(CCCCC(=O)O)C2=C(C)C(=O)c3ccccc3C2=O)cc1` (stereo not drawn), 68 to 71 °C. Compound `O=c1c2ccoc2c2cccnc2n1-c1ccccc1` had a melting point of 245 to 247 °C. The compound `CCc1c(-c2ccc(OCc3ccccc3)cc2)c2c3c(c4c(OCc5ccccc5)ccc1n42)C(=O)OC3=O` gave a melting point of 229 to 231 °C. `COc1cc2c(CCN)c(C)[nH]c2c(Cl)c1Cl` gave a melting point of 184 to 186 °C. For `O=c1[nH]c2ccc(-c3cccc(Cl)c3)cc2n1Cc1ccccc1` the value was 168 to 169 °C; for `COc1ccc2[nH]c3cc(C(=O)O)c4c(c3c2c1)C(=O)NC4=O`, more than 300 °C; for `CC12CCC3c4ccc(OCc5ccccc5)c([N+](=O)[O-])c4CCC3C1CCC2=O` (stereo not drawn), 198 to 199 °C. In turn, `CCOC(=O)c1sc2ccc3c(c2c1Cl)O[C@@H](CO)CO3` displayed a melting point of 165 to 166 °C. `CCOC(=O)c1ncn(C(c2ccccc2)(c2ccccc2)c2ccccc2)c1C` gave a melting point of 188 to 190 °C.

Compound `CCCC1CC(=O)c2c(NC(=O)C(=O)O)ccc(C)c21` (stereo not drawn) returned a melting point of 157 to 158 °C. `COC(=O)c1[nH]c2c(C)ccc(Cl)c2c1C(C)=O` displayed a melting point of 167 to 168 °C.

For the compound `Oc1cc(O)cc(/C=C/c2ccccc2)c1`, the melting point was in the range of 157 to 158 °C. As for `CN(C)C=Nc1sc([N+](=O)[O-])cc1C#N`, the melting point came to 230 °C. The result for `CC(c1oc2ccccc2c(=O)c1-c1cccc(F)c1)n1nc(-c2ccc3c(c2)OCCCO3)c2c(N)ncnc21` (stereo not drawn) reads 234 to 237 °C; that for `COCCOC(=O)Nc1cc(N2CC=CCC2)nc2nc(=O)on12`, 195 to 196 °C; that for `COc1ccc(Oc2cccc3ncnc(NC(=O)Nc4cccc(OC)c4)c23)cc1`, 209 to 210 °C. For `NNC1=NC(=O)C(=Cc2cccc(-c3cc(F)c(O)c(C45CC6CC(CC(C6)C4)C5)c3)c2)S1`, the melting point was in the range of 303 to 308 °C. In turn, `CC(=O)n1c(SC(F)(F)F)cc(-c2ccc(F)cc2)c1-c1ccc(F)cc1` gave a melting point of 75 to 76 °C. With `CC(C)Cn1cnc2c(N)nc3ccc(CCc4ccncc4)cc3c21`, the melting point fell in the range of 221 to 224 °C.

Compound `COc1c(N2C[C@H](N)[C@H]3OCC[C@H]32)c(F)cc2c(=O)c(C(=O)O)cn(C3CC3)c12` (relative stereo) displayed a melting point of 187 to 189 °C. As for `O=C(O)CNC(=O)CSCCCCc1ccc2c(c1)OCO2`, the melting point lay in the range of 95 to 96 °C. For `O=C(Nc1cccnc1Cl)c1ccccc1[N+](=O)[O-]` the value was 160 °C; for `Cn1ncc(C(=O)N2CCOCC2)c1C(=O)Nc1ccn2nc(-c3cccc(F)c3)nc2c1`, 212 to 214 °C. The result for `Cc1cc(SC#N)c(C)c(C)c1O` reads 100 °C. The result for `NCCCCCCCCNc1nc(N)nc2c1ncn2C1C=CC(CO)C1` (stereo not drawn) reads 125 to 127 °C. The compound `CC1=NC(C)(C)SC1=NOC(=O)N(C)C` gave a melting point of 92 to 95 °C. Compound `O=C(Nc1cscn1)C(F)(F)F` came in with a melting point of 138 to 139 °C. On to `C=CCOc1cc(OC(=S)N2CCCC2)ccc1Cl`, for which the melting point was in the range of 87.3 to 91.1 °C.

`CC(NC=O)c1ccccc1C(F)(F)C(F)(F)c1ccccc1` (stereo not drawn): the melting point was 103 to 105 °C. `Cc1ccc(-n2nc3c4cc(/C=C/C(=O)OCc5ccccc5)ccc4[nH]c(=O)n3c2=O)cc1` yielded a melting point of 242 °C. For `O=C(O)COc1ccc2c(c1)-c1nc(SC(c3ccccc3)c3ccccc3)sc1CC2` the value was 141 to 143 °C. Take `CC(=O)OC(CN(Cc1ccccc1)Cc1ccccc1)c1ccc2c(c1)CCN2C(C)=O` (stereo not drawn): the melting point was 91 to 92 °C. For `CC(C)CC(=O)OC(C)OC(=O)NC1(C(=O)O)CC1` (stereo not drawn) the value was 117 to 119 °C; for `O=S(c1ccc2c(c1)C(=C1CCN(CC3CC3)CC1)c1ccccc1C=C2)C(F)(F)F` (stereo not drawn), 146 to 148 °C. `O=C(Cl)CC(c1ccccc1)(c1ccccc1)c1ccccc1` registered a melting point of 182 °C. Consider `O=c1[nH]c(=O)n(CCCCBr)c2ncccc12`, for which the melting point was 139 to 141 °C. For `CCCCCCCC1(CCCCCCC)c2cc(Br)ccc2-c2ccc(Br)cc21` the value was 45 to 46 °C; for `Cc1cc(-c2cc(C(F)F)n3ncc(C(=O)Nc4cccc(S(N)(=O)=O)c4)c3n2)ccc1Cl`, 264 °C. In turn, `CC(C)S(=O)(=O)C1=CC=CN(Cl)C1` came in with a melting point of 82 to 84 °C. For `Cc1sc(C(=O)O)cc1NC(=O)NCc1ccccc1`, the melting point was 259 to 260 °C.

With `COc1cc(Nc2nccc(-c3ccc([N+](=O)[O-])cc3)n2)cc(OC)c1OC`, the melting point came out at 196 °C. In turn, `COc1ccc2c(=O)cc(-c3nc4ccccc4[nH]3)oc2c1` returned a melting point of 201 to 203 °C.

As to `Cc1ccnc(N2C(=S)SCC2(C)O)c1` (stereo not drawn), the melting point worked out at 119 °C. For `O=CC1=Cc2cc(OCc3ccccc3)ccc2OC1`, the melting point lay in the range of 112 to 114 °C. The compound `O=C(Nc1cccc(C(F)(F)F)c1)c1cccc2cc(Oc3cc(CCl)ncn3)ccc12` had a melting point of 178 to 181 °C. The result for `Cc1cc(C)c2c(c1)S(=O)(=O)NCN2` reads 160 to 165 °C; that for `Nc1ccccc1Sc1ncc[nH]1`, 135 to 137 °C; that for `NC(=O)NCc1ccc(CNC(=O)[C@@H](CCCNC(N)=N[N+](=O)[O-])NC(=O)Cc2ccc(O)cc2)cc1`, 168 to 170 °C.
